Reference: PubChem BioAssay (NCI)
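Tested at 5 concentrations; 48 h exposure; 96-well plates; endpoints linearly interpolated, else capped at highest concentration. Here, GI50 denotes the concentration required for 50% inhibition of growth. TGI marks complete inhibition of growth.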

Columns and labels:
Assay in all cases: NCI anticancer screen, dose series, 48 h
SN12C renal = test system: SN12C renal
OVCAR-4 ovarian = test system: OVCAR-4 ovarian
HL-60(TB) leukemia = test system: HL-60(TB) leukemia
ACHN renal = test system: ACHN renal
NCI-H522 lung = test system: NCI-H522 lung
CAKI-1 renal = test system: CAKI-1 renal
U251 CNS = test system: U251 CNS
SK-MEL-2 melanoma = test system: SK-MEL-2 melanoma
MDA-MB-435 = test system: MDA-MB-435
MDA-MB-231 breast = test system: MDA-MB-231 breast

| SMILES | TGI (SN12C renal) | TGI (OVCAR-4 ovarian) | TGI (HL-60(TB) leukemia) | TGI (ACHN renal) | TGI (NCI-H522 lung) | TGI (CAKI-1 renal) [µM] | TGI (U251 CNS) | TGI (SK-MEL-2 melanoma) | TGI (MDA-MB-435) [µM] | TGI (MDA-MB-231 breast) [µM] | GI50 (SN12C renal) | GI50 (OVCAR-4 ovarian) | GI50 (ACHN renal) | GI50 (MDA-MB-435) [µM] | GI50 (CAKI-1 renal) [µM] | GI50 (MDA-MB-231 breast) [µM] | GI50 (U251 CNS) | GI50 (HL-60(TB) leukemia) | GI50 (NCI-H522 lung) | GI50 (SK-MEL-2 melanoma) |
| --- | --- | --- | --- | --- | --- | --- | --- | --- | --- | --- | --- | --- | --- | --- | --- | --- | --- | --- | --- | --- |
| CCOC(=O)CCn1[nH]c(=O)c(Cl)c(Cl)c1=O | > 100 µM | > 100 µM | > 100 µM | > 100 µM | > 100 µM | > 100 | > 100 µM | > 100 µM | – | – | – | – | – | – | – | – | – | – | – | – |
| FC(F)(F)c1nc(-c2ccccc2)oc1Sc1nnc(Sc2oc(-c3ccccc3)nc2C(F)(F)F)s1 | > 100 µM | 28 µM | 19.7 µM | > 100 µM | 36.8 µM | > 78.7 | > 57.2 µM | > 100 µM | – | – | – | – | – | – | – | – | – | – | – | – |
| Cc1nc2ccccc2c(=O)n1-c1ccccc1F | > 100 µM | > 100 µM | > 100 µM | > 100 µM | > 100 µM | > 100 | > 100 µM | > 100 µM | – | – | – | – | – | – | – | – | – | – | – | – |
| CN(C)C(c1ccccc1)C(O)c1ccccc1 (configuration not stated) | > 100 µM | – | > 100 µM | > 100 µM | > 100 µM | > 100 | > 100 µM | > 100 µM | – | – | – | – | – | – | – | – | – | – | – | – |
| COc1ccc2c3c(coc13)C(CCC(=O)O)CC2 (configuration not stated) | > 100 µM | > 100 µM | – | > 100 µM | – | > 100 | > 100 µM | – | – | – | – | – | – | – | – | – | – | – | – | – |
| CC(C)N1CN(C(C(=O)N[C@@H]2C(=O)N3C2SC(C)(C)C3C(=O)O)c2ccccc2)CSC1=S (some centres not stated) | > 100 µM | > 100 µM | > 100 µM | > 100 µM | 72.1 µM | > 100 | > 100 µM | > 100 µM | – | – | – | – | – | – | – | – | – | – | – | – |
| CCc1ccc(Nc2ccc([N+](=O)[O-])cc2[N+](=O)[O-])cc1 | – | > 100 µM | > 100 µM | > 100 µM | – | > 100 | > 100 µM | > 100 µM | – | – | – | – | – | – | – | – | – | – | – | – |
| N#CCc1ccc(C(C#N)/C(CCCC(=O)Nc2cccc([N+](=O)[O-])c2)=N/NC(N)=S)cc1 (configuration not stated) | > 100 µM | > 100 µM | > 100 µM | > 100 µM | > 100 µM | > 100 | > 100 µM | > 100 µM | – | – | – | – | – | – | – | – | – | – | – | – |
| CCOc1ccc2c(c1)[n+]([O-])c(-c1nc3ccccc3s1)c(N)[n+]2[O-] | > 100 µM | > 100 µM | > 100 µM | > 100 µM | 63.3 µM | > 100 | > 100 µM | > 100 µM | – | – | – | – | – | – | – | – | – | – | – | – |
| COc1ccc(/C=C\c2cc(OC)c(OC)c(OC)c2)cc1OC(=O)NCCN(C)C | – | – | 0.00338 µM | > 41.7 µM | 0.000483 µM | > 100 | – | – | < 0.0001 | 0.023 | – | – | – | – | – | – | – | – | – | – |
| OC/C=C(\I)CCCOCOCc1ccccc1 | > 100 µM | > 100 µM | 35.8 µM | > 100 µM | 80.2 µM | – | 64 µM | 47.7 µM | – | – | – | – | – | – | – | – | – | – | – | – |
| Cc1ccc(-c2cc(=O)c3cc(C)c(C)c(C(=O)O)c3o2)cc1C | > 100 µM | > 100 µM | > 100 µM | > 100 µM | > 100 µM | 89.5 | > 100 µM | > 100 µM | – | – | – | – | – | – | – | – | – | – | – | – |
| Cc1[nH]c2ccccc2c1C1Cc2ccccc2N1C(=O)/C(Cl)=C/c1ccccc1 (configuration not stated) | > 100 µM | > 100 µM | > 100 µM | > 100 µM | > 100 µM | > 100 | > 100 µM | > 100 µM | – | – | – | – | – | – | – | – | – | – | – | – |
| COC1=CC2(C=CC1=O)c1cc(OC)c(OC)cc1CCN2C(=O)c1ccccc1 (configuration not stated) | > 100 µM | – | – | > 100 µM | > 100 µM | > 100 | > 100 µM | – | – | – | – | – | – | – | – | – | – | – | – | – |
| CC[CH2][Sn]([Cl])([Cl])[CH2]CC.Oc1ccccc1C=NCCN=Cc1ccccc1O | 23.8 µM | 21 µM | – | 21.8 µM | – | 12.7 | 12.5 µM | – | 24.7 | 15.8 | 11.3 µM | 8.21 µM | 10.1 µM | 7.3 | 2.46 | 3.96 | 3.11 µM | – | – | – |
| COc1cc2c(c(OC)c1)C1(CC(CC#N)C2)SCCS1 (configuration not stated) | > 100 µM | > 100 µM | > 100 µM | > 100 µM | 4.69 µM | > 100 | > 100 µM | > 100 µM | – | – | – | – | – | – | – | – | – | – | – | – |
| Fc1ccc(C2SCc3nc4ccccc4n32)cc1Cl (configuration not stated) | 35.7 µM | > 100 µM | 47.6 µM | > 100 µM | 35.2 µM | 38.4 | 44.6 µM | – | – | – | – | – | – | – | – | – | – | – | – | – |
| N.N.O=C([O-])P(=O)([O-])[O-].[Na+].[Pt+4] | > 100 µM | > 100 µM | > 100 µM | > 100 µM | > 100 µM | > 100 | > 100 µM | > 100 µM | – | – | > 100 µM | > 100 µM | > 100 µM | – | > 100 | – | > 100 µM | > 100 µM | > 100 µM | > 100 µM |
| O=C(/C(=C/c1cccc([N+](=O)[O-])c1)c1ccccc1)c1ccccc1 | 79.8 µM | 16 µM | – | 5.41 µM | 3.77 µM | 10.2 | 8.16 µM | – | 4.43 | > 100 | 3.54 µM | 4.26 µM | 2.3 µM | 1.96 | 3.18 | 4.01 | 2.72 µM | – | 1.91 µM | – |
| C/C=C1/C(=C/c2[nH]c(/C=c3\[nH]/c(=C/C4=NC(=O)C(CC)=C4C)c(C)c3CCC(=O)O)c(CCC(=O)O)c2C)NC(=O)C1C (configuration not stated) | > 150 µg/mL | > 150 µg/mL | > 150 µg/mL | > 150 µg/mL | > 150 µg/mL | – | > 150 µg/mL | > 150 µg/mL | – | – | > 150 µg/mL | > 150 µg/mL | > 150 µg/mL | – | – | – | > 150 µg/mL | > 150 µg/mL | > 150 µg/mL | > 150 µg/mL |
| CCO/N=C(/N)c1ncn(Cc2ccccc2)c1NCC(OCC)OCC | > 100 µM | – | – | > 100 µM | > 100 µM | > 100 | > 100 µM | > 100 µM | – | – | – | – | – | – | – | – | – | – | – | – |
| COc1ccc(CNc2nc3cc(C(F)(F)F)ccc3nc2C)cc1OC | > 100 µM | 43.1 µM | 50.6 µM | – | 92.7 µM | > 100 | > 100 µM | 70.1 µM | – | – | – | – | – | – | – | – | – | – | – | – |
| COc1ncc(-c2ccc3ncnc(Nc4cccc(Cl)c4)c3c2)cc1NS(=O)(=O)CCN1CCOCC1 | > 100 µM | > 100 µM | > 100 µM | – | 8.6 µM | > 100 | > 100 µM | – | > 100 | – | 0.293 µM | 1.14 µM | – | 0.534 | 0.345 | – | 0.824 µM | 0.38 µM | 0.402 µM | – |
